Measurements: ChEMBL document CHEMBL1212738, “Phenotypic and genotypic characterization of Enterobacteriaceae with decreased susceptibility to carbapenems: results from large hospital-based surveillance studies in China” (2010)
Values after ≈ are worked out from the molar mass of the structure shown.

Experiments:
Enterobacter cloacae [1] = test: Antimicrobial activity against carbapenem-resistant Enterobacter cloacae NJ89 deficient in CTX-M-14, ompC/F by CLSI method; assay type: functional
Escherichia coli [2] = test: Antimicrobial activity against Escherichia coli ZJ87T expressing KPC-2 by CLSI method; assay type: functional
Klebsiella pneumoniae [3] = test: Antimicrobial activity against carbapenem-resistant Klebsiella pneumoniae CY1 deficient in SHV-11, DHA-1, ompK35/36 by CLSI method; assay type: functional
Klebsiella pneumoniae [4] = test: Antimicrobial activity against Klebsiella pneumoniae WH77 expressing IMP-4, TEM-1, SHV-14, CTX-M-3, qnrS1 by CLSI method; assay type: functional
Klebsiella pneumoniae [5] = test: Antimicrobial activity against Klebsiella pneumoniae FZ47T expressing IMP-8, TEM-1, CTX-M-14, qnrB2, aac(6')-Ib by CLSI method; assay type: functional
Klebsiella pneumoniae [6] = test: Antimicrobial activity against Klebsiella pneumoniae ZJ18T expressing KPC-2, DHA-1 by CLSI method; assay type: functional
Klebsiella pneumoniae [7] = test: Antimicrobial activity against Klebsiella pneumoniae ZJ70T expressing KPC-2 by CLSI method; assay type: functional
Escherichia coli [8] = test: Antimicrobial activity against Escherichia coli C600 by CLSI method; assay type: functional
Escherichia coli [9] = test: Antimicrobial activity against Escherichia coli PU102T expressing TEM-1, CTX-M-14, CMY-2 by CLSI method; assay type: functional
Klebsiella pneumoniae [10] = test: Antimicrobial activity against Klebsiella pneumoniae GZ64 expressing IMP-4, ompK35/36 by CLSI method; assay type: functional
Klebsiella pneumoniae [11] = test: Antimicrobial activity against Klebsiella pneumoniae ZJ99T expressing KPC-2, CTX-M-3, qnrS1 by CLSI method; assay type: functional
Klebsiella pneumoniae [12] = test: Antimicrobial activity against carbapenem-resistant Klebsiella pneumoniae FZ47 deficient in IMP-8, TEM-1, SHV-11, CTX-M-14, qnrB2, aac(6')-Ib, ompK35/36 by CLSI method; assay type: functional
Klebsiella pneumoniae [13] = test: Antimicrobial activity against carbapenem-resistant Klebsiella pneumoniae PU4 deficient in SHV-1, DHA-1, ompK35/36 by CLSI method; assay type: functional
Klebsiella pneumoniae [14] = test: Antimicrobial activity against Klebsiella pneumoniae GZ64T expressing IMP-4 by CLSI method; assay type: functional
Enterobacter cloacae [15] = test: Antimicrobial activity against carbapenem-resistant Enterobacter cloacae GX56 deficient in ompC and expressing low levels of ompF DE by CLSI method; assay type: functional
Escherichia coli [16] = test: Antimicrobial activity against carbapenem-resistant Escherichia coli ZJ86 expressing KPC-2, TEM-1 with ompC loss by CLSI method
Klebsiella pneumoniae [17] = test: Antimicrobial activity against carbapenem-resistant Klebsiella pneumoniae PU3 deficient in DHA-1, aac(6')-Ib-cr, ompK35/36 by CLSI method; assay type: functional
Enterobacter cloacae [18] = test: Antimicrobial activity against carbapenem-resistant Enterobacter cloacae SZ93 deficient in ompC by CLSI method; assay type: functional
Escherichia coli [19] = test: Antimicrobial activity against carbapenem-resistant Escherichia coli PU96 deficient in TEM-1, CTX-M-14, CMY-2, ompC/F by CLSI method; assay type: functional
Klebsiella pneumoniae [20] = test: Antimicrobial activity against carbapenem-resistant Klebsiella pneumoniae ZJ68 deficient in CTX-M-15, ompK35/36 by CLSI method
Escherichia coli [21] = test: Antimicrobial activity against Escherichia coli C600 transconjugant SZ62T expressing IMP-4, qnrS1by CLSI method
Klebsiella pneumoniae [22] = test: Antimicrobial activity against carbapenem-resistant Klebsiella pneumoniae GZ66 deficient in SHV-11, DHA-1, ompK35/36 by CLSI method; assay type: functional
Escherichia coli [23] = test: Antimicrobial activity against carbapenem-resistant Escherichia coli PU60 deficient in TEM-1, CMY-2, ompC/F by CLSI method; assay type: functional
Klebsiella pneumoniae [24] = test: Antimicrobial activity against carbapenem-resistant Klebsiella pneumoniae PU5 deficient in SHV-12, DHA-1, aac(6')-Ib-cr, ompK35/36 by CLSI method; assay type: functional
Klebsiella pneumoniae [25] = test: Antimicrobial activity against carbapenem-resistant Klebsiella pneumoniae ZJ69 deficient in SHV-28, ompK35/36 by CLSI method; assay type: functional
Klebsiella pneumoniae [26] = test: Antimicrobial activity against carbapenem-resistant Klebsiella pneumoniae ZJ70 deficient in KPC-2, SHV-11, CTX-M-14, ompK35/36 by CLSI method; assay type: functional
Klebsiella pneumoniae [27] = test: Antimicrobial activity against Klebsiella pneumoniae WH97 expressing SHV-33, aac(6')-Ib, ompK35 DE by CLSI method; assay type: functional
Enterobacter cloacae [28] = test: Antimicrobial activity against carbapenem-resistant Enterobacter cloacae NJ91 deficient in CTX-M-14, ompC/F by CLSI method; assay type: functional
Escherichia coli [29] = test: Antimicrobial activity against carbapenem-resistant Escherichia coli PU101 deficient in TEM-1, CTX-M-14, CMY-2, ompC by CLSI method; assay type: functional
Klebsiella pneumoniae [30] = test: Antimicrobial activity against Klebsiella pneumoniae PU104T expressing TEM-1, CTX-M-15 by CLSI method; assay type: functional
Klebsiella aerogenes = test: Antimicrobial activity against Enterobacter aerogenes PU41T expressing CTX-M-14, DHA-1, qnrS1 by CLSI method; assay type: functional
Escherichia coli [31] = test: Antimicrobial activity against Escherichia coli C600 transconjugant XJ81T expressing TEM-1, SHV-12, aac(6')-Ib by CLSI method
Citrobacter freundii = test: Antimicrobial activity against Citrobacter freundii SZ63 expressing IMP-4, qnrS1by CLSI method; assay type: functional

Row | Structure (SMILES) | MIC (Enterobacter cloacae [1]) | MIC (Escherichia coli [2]) | MIC (Klebsiella pneumoniae [3]) | MIC (Klebsiella pneumoniae [4]) | MIC (Klebsiella pneumoniae [5]) | MIC (Klebsiella pneumoniae [6]) | MIC (Klebsiella pneumoniae [7]) | MIC (Escherichia coli [8]) | MIC (Escherichia coli [9]) | MIC (Klebsiella pneumoniae [10]) | MIC (Klebsiella pneumoniae [11]) | MIC (Klebsiella pneumoniae [12]) | MIC (Klebsiella pneumoniae [13]) | MIC (Klebsiella pneumoniae [14]) | MIC (Enterobacter cloacae [15]) | MIC (Escherichia coli [16]) | MIC (Klebsiella pneumoniae [17]) | MIC (Enterobacter cloacae [18]) | MIC (Escherichia coli [19]) | MIC (Klebsiella pneumoniae [20]) | further results
1 | C[C@@H](O)[C@H]1C(=O)N2C(C(=O)O)=C(S[C@@H]3CN[C@H](C(=O)Nc4cccc(C(=O)O)c4)C3)[C@H](C)[C@H]12 | 128 µg/mL (≈ 269 µM) | 16 µg/mL (≈ 33.6 µM) | 32 µg/mL (≈ 67.3 µM) | 4 µg/mL (≈ 8.41 µM) | 4 µg/mL (≈ 8.41 µM) | 2 µg/mL (≈ 4.21 µM) | 16 µg/mL (≈ 33.6 µM) | 0.008 µg/mL (≈ 0.0168 µM) | 0.25 µg/mL (≈ 0.526 µM) | 32 µg/mL (≈ 67.3 µM) | 8 µg/mL (≈ 16.8 µM) | 8 µg/mL (≈ 16.8 µM) | 32 µg/mL (≈ 67.3 µM) | 4 µg/mL (≈ 8.41 µM) | 32 µg/mL (≈ 67.3 µM) | 32 µg/mL (≈ 67.3 µM) | 64 µg/mL (≈ 135 µM) | 0.064 µg/mL (≈ 0.135 µM) | 128 µg/mL (≈ 269 µM) | 64 µg/mL (≈ 135 µM) | MIC (Escherichia coli [21]): 4 µg/mL (≈ 8.41 µM); MIC (Klebsiella pneumoniae [22]): 64 µg/mL (≈ 135 µM); MIC (Escherichia coli [23]): 64 µg/mL (≈ 135 µM); MIC (Klebsiella pneumoniae [24]): 64 µg/mL (≈ 135 µM); MIC (Klebsiella pneumoniae [25]): 32 µg/mL (≈ 67.3 µM); MIC (Klebsiella pneumoniae [26]): > 256 µg/mL; MIC (Klebsiella pneumoniae [27]): 4 µg/mL (≈ 8.41 µM); MIC (Enterobacter cloacae [28]): 128 µg/mL (≈ 269 µM); MIC (Escherichia coli [29]): 128 µg/mL (≈ 269 µM); MIC (Klebsiella pneumoniae [30]): 0.016 µg/mL (≈ 0.0336 µM); MIC (Klebsiella aerogenes): 0.032 µg/mL (≈ 0.0673 µM); MIC (Escherichia coli [31]): 0.008 µg/mL (≈ 0.0168 µM); MIC (Citrobacter freundii): 4 µg/mL (≈ 8.41 µM)
2 | NCC[C@H](O)C(=O)N[C@@H]1C[C@H](N)[C@@H](O[C@H]2O[C@H](CN)[C@@H](O)[C@H](O)[C@H]2O)[C@H](O)[C@H]1O[C@H]1O[C@H](CO)[C@@H](O)[C@H](N)[C@H]1O [AMIKACIN] | > 256 µg/mL | 1 µg/mL (≈ 1.71 µM) | > 256 µg/mL | 1 µg/mL (≈ 1.71 µM) | > 256 µg/mL | > 256 µg/mL | 1 µg/mL (≈ 1.71 µM) | 1 µg/mL (≈ 1.71 µM) | 1 µg/mL (≈ 1.71 µM) | 1 µg/mL (≈ 1.71 µM) | 2 µg/mL (≈ 3.42 µM) | > 256 µg/mL | > 256 µg/mL | 1 µg/mL (≈ 1.71 µM) | > 256 µg/mL | 1 µg/mL (≈ 1.71 µM) | 16 µg/mL (≈ 27.3 µM) | 1 µg/mL (≈ 1.71 µM) | 2 µg/mL (≈ 3.42 µM) | > 256 µg/mL | MIC (Escherichia coli [21]): 1 µg/mL (≈ 1.71 µM); MIC (Klebsiella pneumoniae [22]): > 256 µg/mL; MIC (Escherichia coli [23]): 32 µg/mL (≈ 54.6 µM); MIC (Klebsiella pneumoniae [24]): > 256 µg/mL; MIC (Klebsiella pneumoniae [25]): > 256 µg/mL; MIC (Klebsiella pneumoniae [26]): > 256 µg/mL; MIC (Klebsiella pneumoniae [27]): 1 µg/mL (≈ 1.71 µM); MIC (Enterobacter cloacae [28]): > 256 µg/mL; MIC (Escherichia coli [29]): 4 µg/mL (≈ 6.83 µM); MIC (Klebsiella pneumoniae [30]): 2 µg/mL (≈ 3.42 µM); MIC (Klebsiella aerogenes): > 256 µg/mL; MIC (Escherichia coli [31]): 16 µg/mL (≈ 27.3 µM); MIC (Citrobacter freundii): > 256 µg/mL
